Laboratory results from patent US20160090351A1, “INHIBITORS OF DEUBIQUITINATING PROTEASES” (BRANDEIS UNIVERSITY, priority 2013, published 2016).

Experiments:
UCH-L5, UCH-L3, UCH-L1 = assay: HA-Ub-VS activity profiling in cell lysates, UCH-Ls; type: biochemical, human; conditions: for HA-Ub-VS labeling of UCHL enzymes: 75 μM, 30 minutes preincubation
Description: HA-ubiquitin vinylsulfone (HA-Ub-VS) irreversibly labels DUBs by modifying the catalytic cysteine residue Inhibition of the DUB prevents HA-Ub-VS labeling and the band is. […] The interaction with UCHL1/3 is reversible.
Lysate labeling assay on untransfected cells (1.5 mg/mL) was run with the stated concentration of inhibitor (or 1% DMSO control) for between 19-60 mins. After this time HA-Ub-VS (1.5-0.7 μM) was added and incubated for 19 mins. After this time reaction mixture (9 μL) was removed and quenched in 2× (final concentration) reducing loading buffer. For recovery experiments, a lysate of 6 mg/mL was treated with saturating compound C14 (250 μM) and incubated for 40 mins. Afterward, the lysate was diluted to 0.6 mg/mL (final concentration of inhibitor 25 μM) in lysis buffer (final volume 100 μL), then HA-Ub-VS was added. Aliquots (15 μL) were removed at the stated time (5-119 mins) and immediately quenched in 2× (final concentration) reducing loading buffer. For all HA-Ub-VS experiments samples in loading buffer were heated only to 37° C. prior to loading on a gel. This assay is highly susceptible to concentration of lysate and HA-Ub-VS. Cell experiments were carried out as above with some modifications. For Cos-1 and MCF-7 cells, after trypsinization, media with compound was added to give a final concentration of compound equal to that used in the assay. Cell pellets were lysed on an ice/salt bath with a temperature of −5° C. and lysate was centrifuged for only 5 mins.
HA-Ub-VS is an irreversible inhibitor of DUBs that is widely used in activity profiling. If the DUB inhibitors react to form a thiocarbonylated enzyme as proposed (FIG. 29B), then HA-Ub-VS labeling will be blocked. Treatment of HEK 293T lysates with HA-Ub-VS produced the characteristic pattern of protein bands at 250, 150-100, 45, 38 and 36 kDa, generally ascribed to USP9x (292 kDa), USP19 (146 kDa), USP7/8 (128 and 127 kDa, respectively), USP28/15 (122 and 112 kDa, respectively), UCH-L5 (38 kDa), UCH-L3 (26 kDa) and UCH-L1 (25 kDa) as depicted in FIG. 31.
The effect of diphenylcarbonates on HA-Ub-VS labeling was assessed to investigate the selectivity of DUB inhibition. Lysates were preincubated with diphenyl carbonates (75 μM), then treated with HA-Ub-VS (FIG. 31A). […] These C17 and C22-sensitive DUBs are most likely USP9x, USP19, USP7/8 and UCHL5, based on molecular weight (FIGS. 31B and 38). The identity of USP7 was confirmed by immunoblotting (FIG. 38F). […] Similar behavior was observed on Cos-1 cell lysates (FIG. 38B).

USP9x and USP7 = assay: HA-Ub-VS activity profiling of lysates from treated HEK 293T cells, USPs; type: cell-based, human; conditions: 100 μM, 2 hours
Description: FIG. 32 depicts data showing that diphenyl carbonates inhibit DUBs in HEK 293T cells. A. Viability of HEK 293T cells assessed by the propidium iodide exclusion method: diphenyl carbonate (100 μM), bortezomib (V, 20 μM) and G5 (2 μM). N≧3, mean+/−s.d. B. HEK 293T cells were treated with the stated compounds (50 μM) for 2 h and then assayed for the accumulation of K48-linked Ub species. C. As in A, but K63-linked Ub was assayed. D. HEK 293T cells were treated with C14, C15, C17, C18 (100 μM) or DMSO for 2 hours, then harvested, lysed and treated with HA-Ub-VS. After 30 min, lysates were analyzed by SDS-PAGE and probed for HA, tubulin and actin. An intervening lane was removed for clarity. E. HEK 293T cells expressing Ub-G76V-GFP were treated with diphenyl carbonates (100 μM), bortezomib (20 μM) and G5 (2 μM). […] N>3, Mean+/−s.d. See also FIG. 39.
Lysate labeling assay on untransfected cells (1.5 mg/mL) was run with the stated concentration of inhibitor (or 1% DMSO control) for between 19-60 mins. After this time HA-Ub-VS (1.5-0.7 μM) was added and incubated for 19 mins. After this time reaction mixture (9 μL) was removed and quenched in 2× (final concentration) reducing loading buffer. […]
Lysates from HEK 293T cells treated with diphenylcarbonates were analyzed by HA-Ub-VS activity profiling to assess the selectivity of DUB inhibition in the context of a cell.

Mdm2, p53, p21/WAF1 = assay: Mdm2, p53 and p21/WAF1 levels in MCF7 cells; type: cell-based, human; conditions: for Mdm2 levels: C17 4 h, C15 6 hours dosed every 2 hours
Description: FIG. 35 depicts data showing that diphenylcarbonates reduce the levels of Mdm2 and cause the accumulation of P53 and P21 in MCF7 cells. A. MCF7 cells were treated with C17 for 4 h and Mdm2 levels were measured. B. As in A, P53 measured. C. As in A, P21 measured. D. MCF7 and B16/F10 cells were treated with C17 every 24 hours. After 72 hours, the number of viable cells was measured by Alamar Blue®. See also FIG. 41 and FIG. 42.
C. Effect of C15 on PARP cleavage and P53 levels. […] E. Effects of C15 on Mdm2 and P21 levels. […] F. DMSO treated cells. […] C17 was dosed every 24 h. After this time, cells were analyzed by flow cytometry.
Transfected cells were harvested 1.5 days post transfection. […] Typically clarified lysate was analyzed.
The ability of diphenyl carbonates to inhibit USP7 function in cells was also assessed. The ubiquitin-ligase Mdm2 is a substrate for USP7. Mdm2 is responsible for the ubiquitination and subsequent degradation of p53. Mdm2 is over-expressed in many cancer cells, resulting in the depletion of p53. Mdm2 is itself degraded via an ubiquitin-dependent process. USP7 removes ubiquitin from Mdm2, protecting it from degradation. Like Mdm2, USP7 is over-expressed in many cancers. Inhibition of USP7 promotes the proteasome-mediated degradation of Mdm2, which causes an increase in p53 levels, as well as those of the downstream signaling protein p21/WAF1, and ultimately induces apoptosis.

| SMILES | HA-Ub-VS labeling of UCHL enzymes (UCH-L5, UCH-L3, UCH-L1; HEK 293T lysates) | inhibition of UCH-L1/3/5, dose response (UCH-L5, UCH-L3, UCH-L1; below 50 μM) | HA-Ub-VS labeling of USP9x and USP7 after treatment of cells (USP9x and USP7) | p21/WAF1 levels (Mdm2, p53, p21/WAF1) | p53 levels (Mdm2, p53, p21/WAF1) | Mdm2 levels (Mdm2, p53, p21/WAF1) | HA-Ub-VS labeling of UCH-Ls (UCH-L5, UCH-L3, UCH-L1; HEK 293T lysates, preincubation with G5) |
| --- | --- | --- | --- | --- | --- | --- | --- |
| NCc1ccc(OC(=O)Oc2ccc(Cl)cc2)cc1 [Compound C14, 4-(aminomethyl)phenyl(4-chlorophenol)carbonate] | relatively little effect on the UCHL enzymes |  |  |  |  |  |  |
| NCc1ccc(OC(=O)Oc2ccc3ccccc3c2)cc1 [Compound C17] | relatively little effect on the UCHL enzymes | little inhibition of UCH-L1/3/5 was observed below 50 μM | most potent compounds | robust increase in p21/WAF1 levels | concomitant increase in p53 | Mdm2 levels decreased |  |
| NCc1ccc(OC(=O)Oc2cccc3ccccc23)cc1 [Compound C18] | relatively little effect on the UCHL enzymes |  | most potent compounds |  |  |  |  |
| O=C1/C(=C/c2ccc([N+](=O)[O-])cc2)CS(=O)(=O)C/C1=C\c1ccc([N+](=O)[O-])cc1 [Compound G5, reference compound] |  |  |  |  |  |  | UCH-L1 but not UCH-L3 |
| NCc1ccc(OC(=O)Oc2ccc(Br)cc2)cc1 [Compound C15, 4-(aminomethyl)phenyl(4-bromophenyl)carbonate] | relatively little effect on the UCHL enzymes |  |  | decreased p21/WAF1 | increased P53 levels | decreased Mdm2 |  |
